Data published in ChEMBL document CHEMBL3392959, “Iminosugars as a new class of cholinesterase inhibitors” (Bioorg Med Chem Lett, 2015).
Calls of active or inactive are those of the source. No cut-off for these calls is given here.

Columns and labels:
[1] = molecular target: Acetylcholinesterase (Electrophorus electricus, UniProt O42275); assay: Inhibition of electric eel AchE using acetylthiocholine iodide as substrate by Ellman method
[2] = molecular target: T1, Acetylcholinesterase (Homo sapiens, UniProt P22303)
T1 sequence (P22303 whole entry): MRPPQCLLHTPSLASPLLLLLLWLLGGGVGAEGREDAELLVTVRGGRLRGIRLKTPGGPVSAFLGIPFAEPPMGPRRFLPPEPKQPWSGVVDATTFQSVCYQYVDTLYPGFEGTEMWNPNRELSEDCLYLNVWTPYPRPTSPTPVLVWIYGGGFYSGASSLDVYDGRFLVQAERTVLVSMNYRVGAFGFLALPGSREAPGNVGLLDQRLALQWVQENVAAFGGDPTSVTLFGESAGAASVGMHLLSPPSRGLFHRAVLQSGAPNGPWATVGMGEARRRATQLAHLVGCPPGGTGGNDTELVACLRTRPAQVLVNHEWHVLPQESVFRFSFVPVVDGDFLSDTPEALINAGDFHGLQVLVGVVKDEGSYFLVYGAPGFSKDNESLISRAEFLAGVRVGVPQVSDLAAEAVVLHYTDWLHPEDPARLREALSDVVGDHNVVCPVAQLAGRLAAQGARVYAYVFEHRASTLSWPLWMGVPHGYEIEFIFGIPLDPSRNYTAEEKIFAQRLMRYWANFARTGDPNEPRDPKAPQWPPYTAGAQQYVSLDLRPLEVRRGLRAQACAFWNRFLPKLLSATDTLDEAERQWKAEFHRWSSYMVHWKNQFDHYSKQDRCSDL
Description: Inhibition of human recombinant AchE using acetylthiocholine iodide as substrate by Ellman method

[3] = molecular target: T2, Cholinesterase (Homo sapiens, UniProt P06276)
T2 sequence (P06276 whole entry): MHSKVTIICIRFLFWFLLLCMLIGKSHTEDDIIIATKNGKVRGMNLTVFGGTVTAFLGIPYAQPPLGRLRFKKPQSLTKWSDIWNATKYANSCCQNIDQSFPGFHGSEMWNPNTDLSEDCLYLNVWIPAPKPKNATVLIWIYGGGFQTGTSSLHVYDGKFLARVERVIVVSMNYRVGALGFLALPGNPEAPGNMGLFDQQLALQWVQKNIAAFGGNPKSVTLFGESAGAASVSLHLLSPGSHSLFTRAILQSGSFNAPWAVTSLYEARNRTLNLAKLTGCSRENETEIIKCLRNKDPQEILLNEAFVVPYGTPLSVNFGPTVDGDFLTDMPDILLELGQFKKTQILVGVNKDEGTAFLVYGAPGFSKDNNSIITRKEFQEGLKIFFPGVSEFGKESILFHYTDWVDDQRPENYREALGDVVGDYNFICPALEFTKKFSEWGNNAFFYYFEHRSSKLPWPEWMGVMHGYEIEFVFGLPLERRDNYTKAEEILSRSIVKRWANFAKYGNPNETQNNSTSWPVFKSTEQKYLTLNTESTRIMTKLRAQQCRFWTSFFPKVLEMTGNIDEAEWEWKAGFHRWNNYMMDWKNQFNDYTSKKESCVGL
Description: Inhibition of human recombinant serum BuchE using butyrylthiocholine iodide as substrate by Ellman method

[4] = molecular target: Acetylcholinesterase (Electrophorus electricus) (UniProt O42275); assay: Inhibition of electric eel AchE using acetylthiocholine iodide as substrate at 250 uM by Ellman method
Acetylcholinesterase (Electrophorus electricus), sequence (O42275 24-633 limits assumed): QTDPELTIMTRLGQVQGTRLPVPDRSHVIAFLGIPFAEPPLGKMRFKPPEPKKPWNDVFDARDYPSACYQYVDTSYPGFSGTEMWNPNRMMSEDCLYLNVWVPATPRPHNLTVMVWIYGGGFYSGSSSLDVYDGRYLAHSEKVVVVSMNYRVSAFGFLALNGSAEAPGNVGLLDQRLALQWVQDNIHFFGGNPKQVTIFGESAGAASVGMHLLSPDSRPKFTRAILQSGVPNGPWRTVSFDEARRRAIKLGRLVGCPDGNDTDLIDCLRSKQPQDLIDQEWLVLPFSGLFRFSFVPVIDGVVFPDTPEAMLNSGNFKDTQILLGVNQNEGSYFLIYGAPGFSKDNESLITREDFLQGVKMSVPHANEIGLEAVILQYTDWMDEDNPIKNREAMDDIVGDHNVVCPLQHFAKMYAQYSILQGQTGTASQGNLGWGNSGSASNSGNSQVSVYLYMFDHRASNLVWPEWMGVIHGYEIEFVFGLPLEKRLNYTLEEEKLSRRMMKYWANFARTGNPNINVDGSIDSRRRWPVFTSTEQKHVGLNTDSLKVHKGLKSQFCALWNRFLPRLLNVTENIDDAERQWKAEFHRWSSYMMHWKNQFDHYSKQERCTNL

[5] = molecular target: T1, Acetylcholinesterase; assay: Inhibition of human recombinant AchE using acetylthiocholine iodide as substrate at 250 uM by Ellman method
[6] = molecular target: T2, Cholinesterase; assay: Inhibition of human recombinant serum BuchE using butyrylthiocholine iodide as substrate at 250 uM by Ellman method

Acetylcholinesterase (Electrophorus electricus, UniProt O42275), sequence (O42275 whole entry): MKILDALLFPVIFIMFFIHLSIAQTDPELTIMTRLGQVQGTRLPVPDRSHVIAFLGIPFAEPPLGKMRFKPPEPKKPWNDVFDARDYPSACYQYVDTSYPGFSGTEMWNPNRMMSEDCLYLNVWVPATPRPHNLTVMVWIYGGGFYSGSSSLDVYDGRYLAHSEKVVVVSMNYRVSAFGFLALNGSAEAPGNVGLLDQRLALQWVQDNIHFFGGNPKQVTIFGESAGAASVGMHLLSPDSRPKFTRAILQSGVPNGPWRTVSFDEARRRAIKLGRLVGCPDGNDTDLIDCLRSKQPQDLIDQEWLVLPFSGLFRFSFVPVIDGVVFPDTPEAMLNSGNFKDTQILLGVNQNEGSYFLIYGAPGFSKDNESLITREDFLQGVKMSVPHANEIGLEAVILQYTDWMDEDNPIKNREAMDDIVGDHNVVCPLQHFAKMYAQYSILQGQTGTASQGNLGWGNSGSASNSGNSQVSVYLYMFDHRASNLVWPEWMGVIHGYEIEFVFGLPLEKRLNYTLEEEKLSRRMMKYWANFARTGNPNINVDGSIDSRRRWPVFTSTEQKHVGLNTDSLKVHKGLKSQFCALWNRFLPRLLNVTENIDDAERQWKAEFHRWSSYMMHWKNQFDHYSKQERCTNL

| SMILES | IC50 [1] [µM] | IC50 [2] [µM] | IC50 [3] [µM] | inhibition [4] | inhibition [5] | inhibition [6] |
| --- | --- | --- | --- | --- | --- | --- |
| C=CC[C@@H]1[C@H](O)[C@@H](OCc2ccccc2)[C@H](O)CN1CCCCCCCC | 63 | 22 | 3 | – | – | – |
| C=CC[C@H]1NC[C@@H](O)[C@H](OCc2ccccc2)[C@H]1O | – | – | 61 | < 50% | < 50% | – |
| C[Si](C)(C)CCCn1cc(C[C@H]2NC[C@@H](O)[C@H](O)[C@H]2O)nn1 | – | – | – | inactive | inactive | inactive |
| C=CC[C@@H]1[C@H](O)[C@@H](O)[C@H](O)CN1CCCCCCCC | – | – | 161 | < 50% | < 50% | – |
| O[C@@H]1[C@@H](OCc2ccccc2)[C@@H](Cc2cn(Cc3ccccc3)nn2)NC[C@H]1O | – | – | 7 | < 50% | < 50% | – |
| CCCCCCO[C@H]1CNC[C@@H](O)[C@@H]1O | – | – | – | inactive | inactive | inactive |
| c1ccc(COC[C@H]2NC[C@H](OCc3ccccc3)[C@@H](OCc3ccccc3)[C@@H]2OCc2ccccc2)cc1 | 3 | 60 | 2 | – | – | – |
| CCCCCCCCCCn1cc(C[C@H]2NC[C@@H](O)[C@H](O)[C@H]2O)nn1 | – | – | – | inactive | inactive | inactive |
| CCCc1cn(CCCCCCN2C[C@H](O)[C@@H](O)[C@H](O)[C@H]2CO)nn1 | – | – | – | inactive | inactive | inactive |
| C=CC[C@H]1NC[C@@H](O)[C@H](O)[C@H]1O | – | – | – | inactive | inactive | inactive |
| CCCCCCCCC[C@H]1NC[C@@H](O)[C@H](O)[C@H]1O | – | – | – | inactive | inactive | inactive |
| CCCCN1C[C@@H](O)[C@H](O)[C@@H](O)[C@H]1CCC | – | – | – | inactive | inactive | inactive |
| C#CC[C@H]1NC[C@@H](O)[C@H](O)[C@H]1OCc1ccccc1 | – | – | – | inactive | inactive | inactive |
| O=C1N[C@H](COCc2ccccc2)[C@@H](OCc2ccccc2)[C@H](OCc2ccccc2)[C@H]1OCc1ccccc1 | 2 | 46 | 4 | – | – | – |
| CCCCCCCCO[C@H]1CN(CCCCCCCC)[C@H](CO)[C@H](O)[C@@H]1O | – | – | – | inactive | inactive | inactive |
| O[C@@H]1[C@@H](O)[C@@H](Cc2cn(Cc3cc(OCc4ccccc4)cc(OCc4ccccc4)c3)nn2)NC[C@H]1O | – | – | 1.2 | < 50% | < 50% | – |
| CCCCCC[C@H]1NC[C@@H](O)[C@H](O)[C@H]1O | – | – | – | inactive | inactive | inactive |
| O[C@@H]1[C@@H](O)[C@@H](Cc2cn(CCC(c3ccccc3)c3ccccc3)nn2)NC[C@H]1O | – | – | 15 | < 50% | < 50% | – |
| CCCCCCCCN1C[C@@H](O)[C@H](O)[C@@H](O)[C@H]1CCC | – | – | – | inactive | inactive | inactive |
| CCCCCCCCO[C@H]1[C@H](O)[C@@H](O)CN(CCCCCCCC)[C@@H]1CO | – | – | – | inactive | inactive | inactive |
| CCC[C@@H]1NC[C@@H](O)[C@H](O)[C@H]1O | – | – | 210 | < 50% | < 50% | – |
| CCCCCC[C@H]1N[C@@H](CO)[C@@H](O)[C@H](O)[C@H]1O | – | – | – | inactive | inactive | inactive |
| O[C@@H]1[C@@H](O)[C@@H](Cc2cn(Cc3ccccc3)nn2)NC[C@H]1O | – | – | – | inactive | inactive | inactive |
